This note sets out measurements from paper PMC5100313, “A new tool for the chemical genetic investigation of the Plasmodium falciparum Pfnek-2 NIMA-related kinase” (Malaria Journal, 2016).

For orientation: IC50 means the concentration that inhibits the measured activity by half.

The target of this test is T1, Pfnek-2(V24C) (Plasmodium falciparum, UniProt C0H4G2, V24C).
T1 construct: gene PF3D7_0525900
T1 sequence (C0H4G2 1-286 V24C): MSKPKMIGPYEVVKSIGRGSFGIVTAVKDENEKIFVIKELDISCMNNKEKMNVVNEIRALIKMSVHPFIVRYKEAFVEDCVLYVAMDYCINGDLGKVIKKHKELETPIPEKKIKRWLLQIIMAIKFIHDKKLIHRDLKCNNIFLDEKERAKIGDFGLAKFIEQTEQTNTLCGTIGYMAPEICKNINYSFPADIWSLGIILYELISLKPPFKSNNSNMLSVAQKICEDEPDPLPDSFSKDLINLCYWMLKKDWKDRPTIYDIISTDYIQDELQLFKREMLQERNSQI
The test is described as follows: in vitro […]-ATP kinase assay (MBP substrate), washout, intact-protein LC-MS (mass shift […] Da). Format: biochemical.

Regarding `C#Cc1nc(Nc2ccc(S(N)(=O)=O)cc2)nc2[nH]cnc12` [NCL-00016066, 4-(6-ethynyl-9H-purin-2-ylamino) benzene sulfonamide], the IC50 turned out to be 501 nM.
